Drawing on the OligoGym collection, this text covers 3 h FOB score for 25 substances.

The data set concerns the target APP. The data set can be described thus: mouse, dose not given. Particulars: ASO.

HELM strings list units from the 5' end as sugar, base in round brackets, then linkage (d deoxyribose, r ribose, m 2'-O-methyl, p phosphodiester). Strings are as the collection lists them; they lack the last nucleoside at the 3' end of the tested compound. [moe] = 2'-O-(2-methoxyethyl) (MOE); [sp] = phosphorothioate linkage; [m5C] = 5-methylcytosine

The substance “RNA1{[moe](A)[sp].[moe]([m5C])p.[moe](G)p.[moe](G)p.[moe](A)[sp].d([m5C])[sp].d(T)[sp].d(T)[sp].d(T)[sp].d(T)[sp].d(T)[sp].d(T)[sp].d([m5C])[sp].d(T)[sp].d(T)[sp].[moe]([m5C])p.[moe](T)p.[moe](T)[sp].[moe](G)}$$$$ (last 3' nucleoside missing)” displayed a 3 h FOB score of 0 score 0-7.
On to “RNA1{[moe](A)[sp].[moe]([m5C])p.[moe](T)p.[moe](G)p.[moe](A)[sp].d(T)[sp].d(T)[sp].d(A)[sp].d(T)[sp].d([m5C])[sp].d(A)[sp].d(A)[sp].d(A)[sp].d(T)[sp].d(T)[sp].[moe]([m5C])p.[moe]([m5C])p.[moe](G)[sp].[moe](G)}$$$$ (last 3' nucleoside missing)”, for which the 3 h FOB score turned out to be 0.25 score 0-7.
The value for “RNA1{[moe](A)[sp].[moe]([m5C])p.[moe](T)p.[moe](T)p.[moe](A)[sp].d([m5C])[sp].d(A)[sp].d(A)[sp].d(A)[sp].d([m5C])[sp].d(T)[sp].d([m5C])[sp].d(A)[sp].d([m5C])[sp].d([m5C])[sp].[moe](A)p.[moe](A)p.[moe]([m5C])[sp].[moe](T)}$$$$ (last 3' nucleoside missing)” was 1 score 0-7; that for “RNA1{[moe](A)[sp].[moe]([m5C])p.[moe](T)p.[moe](T)p.[moe]([m5C])[sp].d(T)[sp].d(A)[sp].d([m5C])[sp].d(T)[sp].d(A)[sp].d([m5C])[sp].d(T)[sp].d(T)[sp].d(T)[sp].d(G)[sp].[moe](T)p.[moe]([m5C])p.[moe](T)[sp].[moe](T)}$$$$ (last 3' nucleoside missing)” was 1.5 score 0-7; that for “RNA1{[moe](A)[sp].[moe]([m5C])p.[moe](T)p.[moe]([m5C])p.[moe](A)[sp].d([m5C])[sp].d(A)[sp].d([m5C])[sp].d(A)[sp].d([m5C])[sp].d(T)[sp].d(G)[sp].d(T)[sp].d(T)[sp].d(T)[sp].[moe]([m5C])p.[moe](A)p.[moe](A)[sp].[moe](G)}$$$$ (last 3' nucleoside missing)” was 2.67 score 0-7.
“RNA1{[moe](A)[sp].[moe]([m5C])p.[moe](T)p.[moe]([m5C])p.[moe](G)[sp].d(A)[sp].d(A)[sp].d([m5C])[sp].d([m5C])[sp].d(A)[sp].d([m5C])[sp].d([m5C])[sp].d(T)[sp].d([m5C])[sp].d(T)[sp].[moe](T)p.[moe]([m5C])p.[moe]([m5C])[sp].[moe](A)}$$$$ (last 3' nucleoside missing)”: the 3 h FOB score stood at 0 score 0-7.
The value for “RNA1{[moe](G)[sp].[moe](A)[sp].[moe](T)p.[moe]([m5C])p.[moe](T)[sp].d(G)[sp].d(A)[sp].d(A)[sp].d(T)[sp].d([m5C])[sp].d([m5C])[sp].d([m5C])[sp].d(A)[sp].d([m5C])[sp].d(T)[sp].[moe](T)p.[moe]([m5C])p.[moe]([m5C])[sp].[moe]([m5C])}$$$$ (last 3' nucleoside missing)” was 0.25 score 0-7; that for “RNA1{[moe](G)[sp].[moe](A)p.[moe](A)p.[moe](G)p.[moe]([m5C])[sp].d(A)[sp].d(T)[sp].d(A)[sp].d(T)[sp].d(T)[sp].d([m5C])[sp].d([m5C])[sp].d(T)[sp].d([m5C])[sp].d(T)[sp].[moe](A)p.[moe](T)p.[moe]([m5C])[sp].[moe]([m5C])}$$$$ (last 3' nucleoside missing)” was 0.67 score 0-7; that for “RNA1{[moe](G)[sp].[moe](A)p.[moe](A)p.[moe](G)p.[moe]([m5C])[sp].d(T)[sp].d(T)[sp].d(A)[sp].d([m5C])[sp].d(A)[sp].d(T)[sp].d([m5C])[sp].d(A)[sp].d(T)[sp].d(T)[sp].[moe](T)p.[moe](T)p.[moe]([m5C])[sp].[moe](T)}$$$$ (last 3' nucleoside missing)” was 0 score 0-7.
Then “RNA1{[moe](G)[sp].[moe](A)p.[moe](A)p.[moe]([m5C])p.[moe](T)[sp].d([m5C])[sp].d(G)[sp].d(A)[sp].d(A)[sp].d([m5C])[sp].d([m5C])[sp].d(A)[sp].d([m5C])[sp].d([m5C])[sp].d(T)[sp].[moe]([m5C])p.[moe](T)p.[moe](T)[sp].[moe]([m5C])}$$$$ (last 3' nucleoside missing)”, with 1 score 0-7.
The value for “RNA1{[moe](G)[sp].[moe](A)p.[moe](G)p.[moe](A)p.[moe](T)[sp].d(A)[sp].d([m5C])[sp].d(T)[sp].d(T)[sp].d(G)[sp].d(T)[sp].d([m5C])[sp].d(A)[sp].d(A)[sp].d([m5C])[sp].[moe](G)p.[moe](G)p.[moe]([m5C])[sp].[moe](A)}$$$$ (last 3' nucleoside missing)” was 1.67 score 0-7.
“RNA1{[moe](G)[sp].[moe](A)p.[moe](G)p.[moe](T)p.[moe](A)[sp].d(A)[sp].d(A)[sp].d(T)[sp].d([m5C])[sp].d(A)[sp].d(T)[sp].d(A)[sp].d(A)[sp].d(A)[sp].d(A)[sp].[moe]([m5C])p.[moe](G)p.[moe](G)[sp].[moe](G)}$$$$ (last 3' nucleoside missing)”: the 3 h FOB score came to 2 score 0-7.
Then “RNA1{[moe](G)[sp].[moe](A)p.[moe](T)p.[moe]([m5C])p.[moe](T)[sp].d(G)[sp].d(A)[sp].d(A)[sp].d(T)[sp].d([m5C])[sp].d([m5C])[sp].d([m5C])[sp].d(A)[sp].d([m5C])[sp].d(T)[sp].[moe](T)p.[moe]([m5C])p.[moe]([m5C])[sp].[moe]([m5C])}$$$$ (last 3' nucleoside missing)”, with 0 score 0-7.
The substance “RNA1{[moe](G)[sp].[moe](A)p.[moe](T)p.[moe]([m5C])p.[moe](T)p.[moe](G)p.d(A)[sp].d(A)[sp].d(T)[sp].d([m5C])[sp].d([m5C])[sp].d([m5C])[sp].d(A)[sp].d([m5C])[sp].d(T)[sp].d(T)[sp].[moe]([m5C])p.[moe]([m5C])[sp].[moe]([m5C])}$$$$ (last 3' nucleoside missing)” showed a 3 h FOB score of 0 score 0-7.
As to “RNA1{[moe](G)[sp].[moe](A)p.[moe]([m5C])p.[moe](A)p.[moe](T)[sp].d([m5C])[sp].d(A)[sp].d(T)[sp].d(T)[sp].d(T)[sp].d(A)[sp].d(A)[sp].d(T)[sp].d(T)[sp].d(T)[sp].[moe](G)p.[moe](T)p.[moe](G)[sp].[moe]([m5C])}$$$$ (last 3' nucleoside missing)”, the 3 h FOB score worked out at 0 score 0-7.
“RNA1{[moe](G)[sp].[moe](A)p.[moe]([m5C])p.[moe](A)p.[moe]([m5C])[sp].d(T)[sp].d(T)[sp].d(T)[sp].d(T)[sp].d(A)[sp].d(T)[sp].d([m5C])[sp].d(T)[sp].d(T)[sp].d(G)[sp].[moe]([m5C])p.[moe](A)p.[moe]([m5C])[sp].[moe](T)}$$$$ (last 3' nucleoside missing)” returned a 3 h FOB score of 2.33 score 0-7.
As for “RNA1{[moe](G)[sp].[moe](G)p.[moe](A)p.[moe](A)p.[moe]([m5C])[sp].d(T)[sp].d([m5C])[sp].d(G)[sp].d(A)[sp].d(A)[sp].d([m5C])[sp].d([m5C])[sp].d(A)[sp].d([m5C])[sp].d([m5C])[sp].[moe](T)p.[moe]([m5C])p.[moe](T)[sp].[moe](T)}$$$$ (last 3' nucleoside missing)”, the 3 h FOB score was found to be 2.5 score 0-7.
“RNA1{[moe](G)[sp].[moe](G)p.[moe](T)p.[moe](T)p.[moe](T)[sp].d(A)[sp].d([m5C])[sp].d([m5C])[sp].d(T)[sp].d(T)[sp].d(T)[sp].d(A)[sp].d(A)[sp].d([m5C])[sp].d(A)[sp].[moe](T)p.[moe](T)p.[moe]([m5C])[sp].[moe]([m5C])}$$$$ (last 3' nucleoside missing)”: the 3 h FOB score came out at 0.25 score 0-7.
Substance “RNA1{[moe](G)[sp].[moe](G)p.[moe]([m5C])p.[moe](A)p.[moe](T)[sp].d([m5C])[sp].d(A)[sp].d([m5C])[sp].d(T)[sp].d(T)[sp].d(A)[sp].d([m5C])[sp].d(A)[sp].d(A)[sp].d(A)[sp].[moe]([m5C])p.[moe](T)p.[moe]([m5C])[sp].[moe](A)}$$$$ (last 3' nucleoside missing)” returned a 3 h FOB score of 0.375 score 0-7.
As for “RNA1{[moe](G)[sp].[moe](G)p.[moe]([m5C])p.[moe](A)p.[moe](T)[sp].d([m5C])[sp].d(A)[sp].d([m5C])[sp].d(T)[sp].d(T)[sp].d(A)[sp].d([m5C])[sp].d(A)[sp].d(A)[sp].d(A)[sp].[moe]([m5C])p.[moe](T)p.[moe]([m5C])p.[moe](A)}$$$$ (last 3' nucleoside missing)”, the 3 h FOB score amounted to 0 score 0-7.
Substance “RNA1{[moe](G)[sp].[moe](G)p.[moe]([m5C])p.[moe](A)p.[moe](T)p.[moe]([m5C])[sp].d(A)[sp].d([m5C])[sp].d(T)[sp].d(T)[sp].d(A)[sp].d([m5C])[sp].d(A)[sp].d(A)[sp].d(A)[sp].d([m5C])[sp].[moe](T)p.[moe]([m5C])[sp].[moe](A)}$$$$ (last 3' nucleoside missing)” came in with a 3 h FOB score of 0 score 0-7.
“RNA1{[moe](G)[sp].[moe](G)p.[moe]([m5C])p.[moe](A)p.[moe](T)p.[moe]([m5C])p.d(A)[sp].d([m5C])[sp].d(T)[sp].d(T)[sp].d(A)[sp].d([m5C])[sp].d(A)[sp].d(A)[sp].d(A)[sp].d([m5C])[sp].[moe](T)p.[moe]([m5C])[sp].[moe](A)}$$$$ (last 3' nucleoside missing)” returned a 3 h FOB score of 0 score 0-7.
In turn, “RNA1{[moe](G)[sp].[moe](T)p.[moe](A)p.[moe](G)p.[moe](G)[sp].d(A)[sp].d(A)[sp].d([m5C])[sp].d(T)[sp].d([m5C])[sp].d(G)[sp].d(A)[sp].d(A)[sp].d([m5C])[sp].d([m5C])[sp].[moe](A)p.[moe]([m5C])p.[moe]([m5C])[sp].[moe](T)}$$$$ (last 3' nucleoside missing)” had a 3 h FOB score of 2 score 0-7.
Regarding “RNA1{[moe](G)[sp].[moe](T)p.[moe](A)p.[moe](T)p.[moe]([m5C])[sp].d([m5C])[sp].d(T)[sp].d([m5C])[sp].d(T)[sp].d(T)[sp].d(A)[sp].d(A)[sp].d(T)[sp].d(T)[sp].d([m5C])[sp].[moe]([m5C])p.[moe](T)p.[moe](A)[sp].[moe](T)}$$$$ (last 3' nucleoside missing)”, the 3 h FOB score was 0 score 0-7.
“RNA1{[moe](G)[sp].[moe](T)p.[moe](A)p.[moe]([m5C])p.[moe](A)[sp].d(T)[sp].d(A)[sp].d(T)[sp].d(T)[sp].d([m5C])[sp].d(A)[sp].d(T)[sp].d(T)[sp].d([m5C])[sp].d(A)[sp].[moe](A)p.[moe](T)p.[moe]([m5C])[sp].[moe](T)}$$$$ (last 3' nucleoside missing)”: the 3 h FOB score came to 0 score 0-7.
